These results are taken from patent US20250205384A1, “HEMOSTATIC MATERIAL” (Toray Industries, Inc., priority 2018, published 2025).

The nature of data set [1]: Thickness of lipid membrane from SEM observation image. It counts as physicochemical. Particulars: lipid on PLLA fiber sheet, SEM ×5,000 (FIGS. 17 to 20). As for the experimental part: The thickness of the lipid membrane is preferably 10 to 1,000 nm, more preferably 30 to 500 nm, and still more preferably 60 to 240 nm. The method of measuring the lipid membrane is as follows. The lipid membrane is observed with a scanning electron microscope (SEM). The thickness of five points optionally selected in the SEM observation image is measured, and the mean is regarded as the thickness of the lipid membrane.
An SEM observation image (×1,000) of the base complex before supporting a lipid is shown in FIG. 9, and SEM observation images (×1,000) of the hemostatic materials E2 to E8 are shown in FIGS. 10 to 16, respectively.

Data set [2] is described as follows: Solubility in t-butyl alcohol. The settings on record: in words.
A further data set relates to guinea pig-derived PRP. The data set can be described thus: Evaluation of platelet aggregation capacity of hemostatic material (in vitro), protein assay of attached platelets. It counts as cell-based. The settings on record: lipid supported on base part in place of DHSG lipids. The procedure:
From the hemostatic materials D1, D2, D3 and D4, a base part (fiber sheet part) supporting DHSG, Asp-DHSG, Glu-DHSG and AG-DHSG, respectively, was taken out. To a 12-well plate, the base part (fiber sheet part) that was taken out and 1 mL of guinea pig-derived PRP (2.0×10^5/μL) prepared by the abovementioned method were added. Thereafter, ADP (1 μM, 100 μL) that activates platelets was added, and after allowing to stand at room temperature for 5 minutes, the mixture was washed with 1 mL of DPBS twice. Thereafter, to dissolve platelets attached to the base part (fiber sheet part), 500 μL of 0.5% Triton X was added, followed by allowing to stand at room temperature for 1 hour to obtain a platelet lysate. To a 96-well plate, 10 μL of the platelet lysate prepared by the abovementioned method and 150 μL of Pierce (trademark) 660 nm Protein Assay Kit were added, followed by allowing to stand for 5 minutes. By measuring absorbance at 660 nm using a microplate reader, proteins were quantitatively determined, and the determination results were used as an index of the count of platelets which were not washed away and were attached to the fiber sheet. The results in FIG. 8 are relative values when the platelet count in using the hemostatic material D1 is regarded as 1. […]

For the compound `CCCCCCCCCCCCCCCCOC(=O)CCC(NC(=O)CCC(=O)NC(CCC(=O)NC(CC(=O)O)C(=O)O)C(=O)NC(CC(=O)O)C(=O)O)C(=O)OCCCCCCCCCCCCCCCC` (stereo not drawn) [AG-DHSG], in data set [1], the “thickness of the lipid membrane” value was 124 nm.
For `CCCCCCCCCCCCCCCC(=O)OCC(COP(=O)(O)O)OC(=O)CCCCCCCCCCCCCCC` (stereo not drawn) [Anionic DPPA], the “solubility in t-butyl alcohol compared with the DPPA sodium salt” value in data set [2] is on record as “higher solubility in t-butyl alcohol”.
Turning to `CCCCCCCCCCCCCCCCOC(=O)CCC(NC(=O)CCC(=O)NC(CC(=O)O)C(=O)O)C(=O)OCCCCCCCCCCCCCCCC` (stereo not drawn) [Asp-DHSG], in data set [1], the “thickness of the lipid membrane” value worked out at 153 nm.
On the same count and under the same terms, for `CCCCCCCCCCCCCCCCOC(=O)CCC(NC(=O)CCC(=O)O)C(=O)OCCCCCCCCCCCCCCCC` [DHSG, 1,5-Dihexadecyl-N-Succinyl-L-Glutamate] the value was 131 nm.
With `CCCCCCCCCCCCCCCC(=O)OC[C@H](COP(=O)([O-])OCC[N+](C)(C)C)OC(=O)CCCCCCCCCCCCCCC` [DPPC, 1,2-dipalmitoyl-sn-glycero-3-phosphatidylcholine], the “platelets detected on the base part (fiber sheet part) after washing” value with guinea pig-derived PRP is “no platelets were detected”.
As for `CCCCCCCCCCCCCCCCOC(=O)CCC(NC(=O)CCC(=O)NC(CCC(=O)O)C(=O)O)C(=O)OCCCCCCCCCCCCCCCC` (stereo not drawn) [Glu-DHSG], the “thickness of the lipid membrane” value in data set [1] was 187 nm.
